Data set [1] has as its system J774 murine macrophage cells. In words: MTT cytotoxicity assay of free ceramide and liposomes, 72 hours. The note with it: liposome concentration corrected for ceramide content. The format is cell-based. The procedure: (§1) Human estrogen receptor negative MDA435/LCC6 wild-type and MDR-1 gene transfected MDA435/LCC6^MDR1 multidrug resistant breast cancer cell lines were obtained from Dr. Robert Clark, Georgetown University, Washington, D.C. J774 murine macrophage cells were obtained from ATCC (Rockville, Md.). All cells were grown as adherent monolayer cultures in 25-cm^2 Falcon flasks in DMEM supplemented with 10% fetal bovine serum and 1% L-glutamine. Cells were maintained at 37° C. in humidified air with 5% CO2. Cells were sub-cultured weekly using 0.25% trypsin with 1 mM EDTA (MDA435/LCC6) or gentle cell scraping (J774).
(§2) Cell suspensions were diluted 1:1 with trypan blue, counted with a hemocytometer and seeded into 96-well microtitre plates at […] in 0.2 ml complete medium. […] After 72 hours the cell viability was assessed using a conventional 3-(4,5-dimethylthiazol-2-yl)-2,5-diphenyl tetrazolium bromide (MTT) dye reduction assay. […] The formazan dye was measured spectrophotometrically using a Dynex plate reader (570 nm). […] The cytotoxic effect of each treatment was expressed as percent cell viability relative to untreated control cells (% control) and is defined as: [(Abs570 treated cells)/( Abs570 control cells)]×100.
The inventors next determined whether the stable formulation of C16-ceramide into CHEMS liposomes translated into enhanced cytotoxicity in vitro. […]

In data set [2] the test system is MDA435/LCC6 wild-type and MDR-1 gene transfected MDA435/LCC6MDR1 breast cancer cells. In words: MTT cytotoxicity assay of free ceramides, 72 hours. The format is cell-based, human. The note with it: free ceramide, wild-type and MDR1 MDA435/LCC6 cells, not separated. The procedure:
as §1
as §2, with “medium. The perimeter wells were not used and contained 0.2 ml sterile water.” for “medium.”, “cells)]×100. […]” for “cells)]×100.”

What is called IC50 is the concentration needed to halve the response being measured. Lower therefore signals higher potency.

In turn, `CCCCCCCCCCCCC/C=C/[C@@H](O)[C@H](CO)NC(=O)CCCCC` [C6-ceramide] registered an IC50 in data set [1] of 14.4 µM.

As to `CCCCCCCCCCCCC/C=C/[C@@H](O)[C@H](CO)NC(=O)CCCCCCCCC` [C10-ceramide], the IC50 in data set [2] is around 45 µM.

Compound `CCCCCCCCCCCCC/C=C/[C@@H](O)[C@H](CO)NC(=O)CCCCCCCCCCCCCCC` [C16-ceramide] returned an IC50 in data set [1] above 100 µM.

These data come from patent US20070031480A1, “Enhanced delivery of sphingolipids” (priority 2003, published 2007).
